Consider 9 compounds from PMC8596301 (Frontiers in Pharmacology, 2021).

Data set [1] has as its target T1, FLAG-mouse δOR (Mus musculus, UniProt P32300).
T1 construct: expressed in transfected cells; host or cells: HEK cells (HEK-293), transient, co-transfected with pGloSensor22F
Also noted: method as in Gutridge et al., 2020. The following applies: cited from earlier work.

The test system of data set [2] is C57Bl/6 male mice. The following applies: 3 mg∙kg^−1; ref Gutridge et al., 2020; cited from earlier work.
Data set [3] addresses T2, δOR (Homo sapiens, UniProt P41143). Description: biochemical. The class given is binding.
Data set [4] relates to C57Bl/6 male mice. Description: Locomotor evaluation (ambulation). The following applies: 7-hydroxymitragynine 3 mg∙kg^−1 i.p.; naloxone 1 mg∙kg^−1 s.c. 10 min prior; WT male mice; 90 min.
Data set [5] addresses T3, HA-mouse µOR (Mus musculus, UniProt P42866).
T3 construct: expressed in transfected cells; host or cells: HEK cells (HEK-293), transient, co-transfected with pGloSensor22F
The following applies: cited from earlier work.

Data set [6] deals with wild-type C57Bl/6 mice. The settings on record: cited from earlier work.
Data set [7] deals with T4, FLAG-mouse κOR (Mus musculus, UniProt P33534).
T4 construct: expressed in transfected cells; host or cells: HEK cells (HEK-293), transient, co-transfected with pGloSensor22F
Further details: method as in Gutridge et al., 2020. The settings on record: cited from earlier work.

Data set [8] concerns the target T2, δOR. Further details: expressed in transfected cells; method as in Gutridge et al., 2020. The settings on record: ref Gutridge et al., 2020; cited from earlier work.
Data set [9] concerns the target κOR (Homo sapiens, UniProt P41145). Description: biochemical. The class given is binding.
The target in data set [10] is T3, HA-mouse µOR. Description: cell-based. The following applies: for Emax: HEK293, read-out: cAMP α (% inhibition at maximal efficacy).
In data set [11] the target is μOR (Homo sapiens, UniProt P35372). Kind of data set: biochemical. The class given is binding.
Data set [12] has as its target T1, FLAG-mouse δOR. Description: cell-based. The following applies: for Emax: HEK293, read-out: cAMP α (% inhibition at maximal efficacy).
The test system of data set [13] is wild-type C57Bl/6 mice. Description: Two-bottle choice alcohol paradigm (drinking in the dark, 10% ethanol vs. water). The class given is in vivo, mouse. The settings on record: WT male mice. The method, then: (§1) Mice were subject to drinking in the dark (DID), limited access (4 h per day), two-bottle choice (10% ethanol vs. water) paradigm in which they were trained to consume alcohol voluntarily as previously described ([Rhodes et al., 2005]; [van Rijn and Whistler, 2009]). Mice reached stable alcohol consumption within 3 weeks of training, and after the third week, drug injections were administered prior to the daily drinking session on Friday. Drug’s effect on alcohol consumption was measured as the change in Friday’s alcohol intake minus the average alcohol intake from the preceding Tuesday–Thursday of that week (g∙kg^−1). A summary of all statistical analyses for the drinking data can be found in Supplemental Tables S6–S9. In brief, results from two-bottle choice alcohol consumption paradigms were assessed for statistical significance using RM two-way ANOVA for main effects of drug dose, treatment day, and drug dose × treatment day; Sidak’s multiple comparisons (MC) between alcohol consumption baseline (Tuesday–Thursday average) vs. treatment day consumption (Friday) were then used as the post hoc test for each drug dose tested. The same RM two-way ANOVA and Sidak’s MC post hoc analyses were used for water consumption and ethanol preference data. […] Sex differences between baseline data were evaluated using RM two-way ANOVA for main effects of sex, treatment baseline, and sex × treatment baseline; Sidak’s multiple comparisons (MC) between male and female mice were then used as the post hoc test for each treatment week tested.

For data set [14], the system named is wild-type and δOR KO male mice. Kind of data set: Accelerating rotarod test. The class given is in vivo, mouse. The method, then:
Mice were trained to walk on a rotarod apparatus (IITC, United States) with 1.25” diameter drums 2 days prior to drug testing. The rotarod started at 3 rpm and was increased to 30 rpm over 300 s. A trial for a mouse ended when it fell and tripped the sensor, when it rode the rotarod for two consecutive revolutions, or after 300 s (the maximum trial time)([White et al., 2015]). Mice received at least 3 min of rest between trials. On test day, baseline performance was assessed as the average latency to fall in three trials per mouse. […] Each mouse’s performance was normalized to its own baseline and reported as a percentage. A summary of all statistical analyses for the rotarod data can be found in Supplemental Table S2. In brief, data for each tested timepoint were calculated as a percentage of the baseline, and thus statistical significance was calculated in a two-tailed, one sample t test vs. a hypothetical mean of 100 (baseline was 100%). Rotarod results between WT and δOR KO genotypes were compared with a mixed-effects model with fixed effects for timepoint, genotype, and timepoint × genotype.
On the technique in general: Falling from the rotarod earlier than controls is read as motor impairment.

Data set [15] addresses T4, FLAG-mouse κOR. Description: cell-based.
The subject of data set [16] is δOR KO mice. Kind of data set: Two-bottle choice alcohol paradigm (drinking in the dark, 10% ethanol vs. water). The settings on record: speciociliatine 30 mg∙kg^−1 i.p.; δOR KO male mice. The class given is in vivo, mouse. The method, then:
as §1

Where [17] appears, read: read-out: cAMP IC50, ref Gutridge et al., 2020.
[18] abbreviates: 7-hydroxypaynantheine 30 mg∙kg^−1 s.c.
The mark [19] stands for this setting: 30 mg∙kg^−1 i.p., wild-type mice.
Where [20] appears, read: speciociliatine 3, 10 and 30 mg∙kg^−1 i.p.

The structures appear in SMILES notation. Read-outs that look alike come from different tables or passages of the source.

μOR, sequence (P35372 whole entry): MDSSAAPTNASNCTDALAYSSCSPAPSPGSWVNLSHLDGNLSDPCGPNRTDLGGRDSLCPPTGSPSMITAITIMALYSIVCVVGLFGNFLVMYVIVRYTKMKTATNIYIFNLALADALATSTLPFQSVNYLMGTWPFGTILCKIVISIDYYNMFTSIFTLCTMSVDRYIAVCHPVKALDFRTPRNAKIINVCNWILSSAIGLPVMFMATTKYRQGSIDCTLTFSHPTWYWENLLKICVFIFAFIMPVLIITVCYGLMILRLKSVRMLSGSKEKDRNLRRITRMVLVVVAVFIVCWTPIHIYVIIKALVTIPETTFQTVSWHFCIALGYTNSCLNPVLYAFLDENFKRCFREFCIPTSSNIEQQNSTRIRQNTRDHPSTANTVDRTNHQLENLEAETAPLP
T3 sequence (P42866 whole entry): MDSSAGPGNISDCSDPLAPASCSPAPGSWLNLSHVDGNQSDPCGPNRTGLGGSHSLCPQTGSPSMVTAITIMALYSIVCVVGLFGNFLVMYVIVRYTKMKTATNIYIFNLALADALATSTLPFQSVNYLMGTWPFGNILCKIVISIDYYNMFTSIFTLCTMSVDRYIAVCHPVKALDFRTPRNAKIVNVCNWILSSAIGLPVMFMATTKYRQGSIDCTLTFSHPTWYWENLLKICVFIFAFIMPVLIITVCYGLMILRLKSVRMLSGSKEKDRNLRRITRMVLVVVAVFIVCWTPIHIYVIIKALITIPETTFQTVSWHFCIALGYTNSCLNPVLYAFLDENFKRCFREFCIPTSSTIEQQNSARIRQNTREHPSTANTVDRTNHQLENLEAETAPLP
κOR, sequence (P41145 whole entry): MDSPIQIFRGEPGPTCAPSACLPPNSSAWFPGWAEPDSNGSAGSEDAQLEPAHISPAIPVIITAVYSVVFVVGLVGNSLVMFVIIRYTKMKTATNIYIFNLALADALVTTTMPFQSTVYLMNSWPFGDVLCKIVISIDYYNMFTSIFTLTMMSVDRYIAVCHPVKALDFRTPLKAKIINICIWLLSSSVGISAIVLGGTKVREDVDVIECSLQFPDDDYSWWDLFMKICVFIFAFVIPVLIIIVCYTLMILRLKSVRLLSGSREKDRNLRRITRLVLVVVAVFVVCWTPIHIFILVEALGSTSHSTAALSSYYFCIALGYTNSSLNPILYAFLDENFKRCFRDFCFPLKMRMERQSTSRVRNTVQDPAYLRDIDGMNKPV
T1 sequence (P32300 whole entry): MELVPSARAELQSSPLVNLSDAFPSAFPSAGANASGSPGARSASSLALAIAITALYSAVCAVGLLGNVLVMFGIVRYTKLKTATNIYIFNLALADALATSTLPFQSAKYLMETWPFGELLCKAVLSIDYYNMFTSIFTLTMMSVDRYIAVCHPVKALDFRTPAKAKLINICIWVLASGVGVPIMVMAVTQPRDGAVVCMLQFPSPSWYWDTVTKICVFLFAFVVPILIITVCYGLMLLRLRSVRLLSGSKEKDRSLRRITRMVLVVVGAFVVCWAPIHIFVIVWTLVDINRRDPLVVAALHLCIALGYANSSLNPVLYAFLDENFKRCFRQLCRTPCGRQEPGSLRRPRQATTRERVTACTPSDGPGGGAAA
T2 sequence (P41143 whole entry): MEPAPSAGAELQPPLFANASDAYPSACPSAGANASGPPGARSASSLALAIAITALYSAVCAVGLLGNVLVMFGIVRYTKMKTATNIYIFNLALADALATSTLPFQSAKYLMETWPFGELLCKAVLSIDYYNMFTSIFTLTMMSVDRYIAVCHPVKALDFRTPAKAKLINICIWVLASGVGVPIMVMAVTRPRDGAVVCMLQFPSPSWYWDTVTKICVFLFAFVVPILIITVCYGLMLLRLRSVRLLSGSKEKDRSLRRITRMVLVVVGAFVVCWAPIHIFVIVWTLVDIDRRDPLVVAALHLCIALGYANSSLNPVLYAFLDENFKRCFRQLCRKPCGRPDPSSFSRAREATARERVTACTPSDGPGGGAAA
T4 sequence (P33534 whole entry): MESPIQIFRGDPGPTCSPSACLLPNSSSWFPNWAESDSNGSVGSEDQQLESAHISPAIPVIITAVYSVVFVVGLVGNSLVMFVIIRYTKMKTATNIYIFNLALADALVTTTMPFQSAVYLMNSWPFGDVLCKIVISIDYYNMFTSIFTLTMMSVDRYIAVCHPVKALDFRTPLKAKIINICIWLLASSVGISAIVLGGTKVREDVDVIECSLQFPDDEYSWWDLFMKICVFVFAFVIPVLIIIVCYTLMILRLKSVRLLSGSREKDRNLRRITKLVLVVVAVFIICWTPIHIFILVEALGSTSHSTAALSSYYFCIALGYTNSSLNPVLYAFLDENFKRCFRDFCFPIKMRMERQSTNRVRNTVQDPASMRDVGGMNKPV

Usually IC50 stands for the point on the concentration scale where inhibition reaches its midpoint. By Ki is commonly meant a dissociation constant, usually derived from enzyme kinetics or from competition with a known ligand. Low readings indicate higher affinity, high ones lower affinity. As for `CC[C@@H]1CN2CC[C@@]3(O)C(=Nc4cccc(OC)c43)[C@@H]2C[C@@H]1/C(=C\OC)C(=O)OC` [7-OH MITRA, 7-hydroxymitragynine, reference compound], the “cAMP α” value is listed as 80 ± 8 in data set [1] (normalized to Leu-enkephalin, ref Gutridge et al., 2020); 84 ± 3 in data set [5]; 77 ± 5 in [7] (normalized to U50,488, ref Gutridge et al., 2020). The half-maximal inhibitory concentration (IC50) is 960 nM in data set [1] (setting [17]) and 1040 nM in data set [7] (setting [17]). In addition, the “Hyperlocomotion and CPP” value in data set [2] was “caused both hyperlocomotion and CPP”. Further, the Ki stood at 190 nM in data set [3] and 0.14 µM in [9] (Binding Ki (µM)). Also, the “Hyperlocomotion induced by 7-hydroxymitragynine after naloxone pretreatment” value in [4] is listed as “blocked”. For the same compound, the “Minimal effective dose to reduce alcohol intake” value in data set [6] (ref Gutridge et al., 2020) was 3 mg/kg. The “β-arrestin 2 α” value in data set [8] is given as 14 ± 1.
`C=C[C@H]1CN2CC[C@@]3(O)C(=Nc4cccc(OC)c43)[C@@H]2C[C@@H]1/C(=C\OC)C(=O)OC` [7OH PAYN, 7-Hydroxypaynantheine]: in data set [10], the IC50 was 21800 nM and the Emax turned out to be 80 ± 40%. In data set [3], this compound gave a Ki of 12700 nM. Besides, the affinity in data set [11], expressed as Ki, was 6150 nM. Moreover, in data set [12], the IC50 worked out at 5740 nM and the Emax came out at 70 ± 20%. Also, in [13] (30 mg∙kg^−1 s.c.), the “Decrease in ethanol consumption” value was determined as 1.1 ± 0.3 g/kg and the “Reduction in ethanol consumption” value worked out at 40 ± 11%. Further, in [13] (setting [18]), the Ethanol preference entry was “corresponding decrease in ethanol preference” and the Water consumption entry is “concomitant increase in water consumption”. Also, the Alcohol intake entry in data set [13] (7-hydroxypaynantheine 10 and 30 mg∙kg^−1 s.c.) is recorded as “significantly reduce alcohol intake”. In data set [9] (Binding Ki (µM)), this compound showed a Ki of 7.46 µM.
For `COc1ccsc1CNCC[C@@]1(c2ccccn2)CCOC2(CCCC2)C1` [Oliceridine/TRV130, Oliceridine], in [6] (selective activation of μOR G-protein signaling, ref Gutridge et al., 2020), the Alcohol consumption result is “did not decrease alcohol consumption”.
For `C=CC1CN2CCC3(Nc4cccc(OC)c4C3=O)C2CC1C(=COC)C(=O)OC` (centres unmarked) [PAYN PI, Paynantheine Pseudoindoxyl], inhibition in data set [10] was half-maximal at 4820 nM (IC50). Moreover, the Emax in data set [10] is 60 ± 6%. In addition, the Ki amounted to 920 nM in data set [3], 680 nM in data set [11] and 1.31 µM in [9] (Binding Ki (µM)).
Take `CC[C@@H]1CN2CCc3c([nH]c4cccc(OC)c34)[C@H]2C[C@@H]1/C(=C\OC)C(=O)OC` [SPECIO, speciociliatine]: in [14] (30 mg/kg i.p., one δOR KO mouse), the “Seizure level observed in the rotarod assay” value is given as 5–6. In addition, the “Mortality in the rotarod assay” value in data set [14] (30 mg/kg i.p., δOR KO mice (n = 8)) is given as “one δOR KO mouse died”. Also, in [14] (setting [19]), the “Rotarod performance (latency to fall, % of baseline)” value is listed as “significantly reduced the ability” and the “Time of full recovery on rotarod” value came out at 120 min. In addition, in [14] (30 mg∙kg^−1 i.p., δOR KO mice), the Rotarod performance result was “same effect was observed”. The Ki in [3] amounted to 4340 nM. Moreover, the Emax in data set [15] (HEK293, read-out: cAMP α (% inhibition at maximal efficacy)) was 60 ± 7%. Also, in data set [13] (30 mg∙kg^−1 i.p.), the “Average decrease in ethanol consumption” value came to 2.5 ± 0.3 g/kg and the “Reduction in ethanol consumption” value is 90 ± 3%. Further, the Ethanol preference entry in [13] (speciociliatine 30 mg∙kg^−1 i.p.) was “significantly decreased”. Moreover, in data set [13] (setting [20]), the Ethanol consumption result is on record as “significantly decreased ethanol consumption but only at the 30 mg∙kg^−1 dose” and the Water consumption entry is “did not change water consumption”. Moreover, in [16], the Ethanol preference entry is on record as “significantly decreased” and the Water consumption result is given as “did not change water consumption”. Besides, the affinity in [9] (Binding Ki (µM)) corresponds to a Ki of 0.59 µM.
In the case of `CC[C@H]1CN2CC[C@]3(Nc4cccc(OC)c4C3=O)[C@@H]2C[C@@H]1/C(=C\OC)C(=O)OC` [SPG PI, Speciogynine Pseudoindoxyl], the IC50 in data set [10] stood at 230 nM; in data set [12] it was 8530 nM; in [15], 20600 nM. Further, the Emax in [10] was 58 ± 4%; in data set [12], 80 ± 20%. For the same compound, the Ki in [3] worked out at 940 nM; in [11] it was 77 nM; in [9], 0.75 µM.
As to `CC[C@H]1CN2CCc3c([nH]c4cccc(OC)c34)[C@@H]2C[C@@H]1/C(=C\OC)C(=O)OC` [SPG, speciogynine], the Ki was 3 µM in [9] (Binding Ki (µM)) and 3.98 µM in data set [9] (Binding pKi).
`Oc1ccc2c3c1O[C@H]1c4oc5ccccc5c4C[C@@]4(O)[C@@H](C2)N(CC2CC2)CC[C@]314` [naltriben]: in data set [6] (6 and 10 mg∙kg^−1, ref van Rijn and Whistler, 2009), the Alcohol consumption result is “dose-dependently decreases alcohol consumption”.
As for `Oc1ccc2c3c1O[C@H]1c4[nH]c5ccccc5c4C[C@@]4(O)[C@@H](C2)N(CC2CC2)CC[C@]314` [naltrindole], in data set [6] (10 mg∙kg^−1, ref van Rijn and Whistler, 2009), the Alcohol intake result is listed as “does not decrease alcohol intake”.
